Experiments:
HaCaT cells = test: Proliferation assay (HaCaT cells, ATP-lite bioluminescent readout of intracellular ATP); type: cell-based; settings: Homo sapiens, 144 h, absolute IC50 of inhibition of proliferation, 10% FBS, 6 days incubation, mean of 3 experiments
Description: Human adult low calcium high temperature (HaCaT) cells are spontaneously transformed human keratinocytes that have the characteristics of basal epidermal keratinocytes (Boukamp et at. J Cell Biol 106:761-771, 1988) This line can be used as in vitro model for highly proliferative epidermis (Ockenfels et at., Arch Dermatol Res 287:301-309, 1995)
HaCaT cells exponentially growing were plated in clear bottom, white walled, 96-well plates at a density of 5000 cells/well in 100 µL Dulbecco's modified Eagle's medium (DMEM) containing 1% fetal bovine serum (FBS), and incubated overnight at 37 °C, 5% CO2. Next day, media in each well was replaced with 50 µL growth medium containing 10% FBS. 50 µL of compounds at two-fold the desired concentration in growth medium containing 2% dimethyl sulfoxide (DMSO) were added to the wells. Six wells were replaced with fresh 100 µL of medium containing 1% FBS and 1% DMSO and were used as a control of no proliferation. Six other wells were replaced with fresh 100 µL of medium containing 10% FBS and 1% DMSO and were used as a control of top proliferation. Each compound concentration was tested in triplicate and ranged from 100 µM to 0.4 µM in half-log serial dilutions. Plates were incubated at 37°C 5% CO2 for 6 consecutive days. […] Results were expressed as a % of inhibition of proliferation in relation to the top and bottom proliferation wells. […]

[1] = system: premalignant and malignant human cutaneous keratinocytes; settings: cytostasis was followed by apoptosis; cited from earlier work

## COc1cccc(-c2cc(F)c(Nc3ncccc3C(=O)O)c(F)c2)c1 [2-(3,5-difluoro-3'-methoxybiphenyl-4-ylamino)nicotinic acid]
HaCaT cells
  IC50: 580 nM

## O=C(O)c1cc(C2CC2)ccc1Nc1cnc(-c2c(F)cccc2F)nc1 [5-cyclopropyl-2-(2-(2,6-difluorophenyl)pyrimidin-5-ylamino)benzoic acid]
HaCaT cells
  IC50: 260 nM

## CC(O)=C(C#N)C(=O)Nc1ccc(C(F)(F)F)cc1 [Teriflunomide, 2-Butenamide, 2-cyano-3-hydroxy-N-[4-(trifluoromethyl)phenyl]-]
[1]
  effect on premalignant and malignant human cutaneous keratinocytes: dose- and time-dependent cytostasis

From patent EP2444088A1, “Amino derivatives for the treatment of proliferative skin disorders” (Almirall, S.A., priority 2010, dated 2012)
